According to patent US11046657B2, “Pyrimidinone derivatives and uses thereof to neutralize the biological activity of chemokines” (Centre National de la Recherche Scientifique (CNRS), priority 2016, dated 2021):
In brackets after ≈: the same amount, converted by molar mass. Entries after “also recorded” stand apart in the source; their conditions may differ. Like-named read-outs stand apart in the source and are kept apart here.

What was measured:
SuHx Wistar rats = test: SU-5416/Hypoxia rat model of pulmonary hypertension; type: in vivo; conditions: 100 mg/kg/day i.p.; for Pulmonary vascular remodeling: H&E and alpha-SMA staining of lung sections; for Total pulmonary vascular resistance (TPVR): curative protocol, vs vehicle-treated SuHx rats
Experimental: FIG. 6A: In vivo effect of chalcone-4 and compound (1) in the SU-5416 (20 mg/kg)/Hypoxia (SuHx) rat model of PH on total pulmonary vascular resistance, cardiac output and right ventricular hypertrophy. Male Wistar rats (100 g upon arrival in the laboratory; Janvier Labs, France) served as experimental subjects. SU-5416 (20 mg/kg) was injected subcutaneously and the rats were placed in normobaric hypoxia (10% FiO2) for 3 weeks for PH to develop, and were then left for 2 weeks in normoxia. Rats were treated either with chalcone-4 or compound (1) at a dose of 100 mg/kg i.p. as compared with vehicle-treated SuHx rats. In addition, a group of healthy rats with no PH were used as the control group (CTR). The total pulmonary vascular resistance (TPVR), cardiac output (CO), right ventricular hypertrophy (RVH) assessed by the Fulton index [right/(left+septum) ventricular weight] were obtained in CTR and SuHx rats treated with chalcone-4 and compound (1). The bar graph represents means SEM. *** p-value <0.001, **** p-value <0.0001 versus CTR rats. # p-value <0.05,### p-value <0.001 versus vehicle-treated SuHx rats.
The activity of compound (1) vs chalcone-4 was evaluated in an animal model of pulmonary hypertension (PH) (by convention, animal models are still referred to as having PH rather than PAH): the SU-5416 (20 mg/Kg)/Hypoxia rat model. Chalcone-4 and compound (1) (100 mg/kg/day) were prepared in carboxymethylcellulose (CMC 1% in saline) and administered I.P. Rats were treated for 3 weeks in a curative protocol, and were then left for 2 weeks in normoxia. An additional group of healthy rats with no PH was used as the control group (CTR).
PH was induced by a single subcutaneous injection of SU5416 (20 mg/kg) in Wistar rats, followed by a 3-week exposure to chronic hypoxia (10% FiO2). Right ventricular structure and function was assessed by echocardiography using the GE Vivid 9 ultrasound. Before treatment begins, echocardiography measurements of each rat have been performed to validate the presence of PH in animals (acceleration time/ejection time). Then, the rats were randomized by numbering the animals from 1 to 4 in each cage at the beginning of the study, and then looking at a random number table. Each rat has been treated by intraperitoneal administration. At the end of the treatment period, a right heart catheterization (RHC) was performed to determine the PH severity and the cardiac function.
Animals were anesthetized with isoflurane. A polyvinyl catheter was introduced into the right jugular vein and pushed through the right ventricle into the pulmonary artery. Cardiac output in rats was measured using the thermodilution method.
After measurement of hemodynamic parameters, the thorax was opened and the left lung immediately removed and frozen. The right lung was fixed in the distended state with formalin buffer. The right ventricular hypertrophy assessed by the Fulton index [weight ratio of right ventricle (RV) and (left ventricle (LV)+septum)] and the percentage of wall thickness [(2× medial wall thickness/external diameter)×100] and of muscularized vessels were determined as previously described^21.
Histological sections were stained with hematoxylin and eosin, and immunohistochemistry for alpha-smooth muscle actin was performed as previously described^1′. Images were taken with a microscope Nikon Eclipse 80i and NIS-Elements BR 2.30 software.

CXCL12 to CXCR7 = CXCL12 to CXCR7 (Homo sapiens, UniProt P48061); conditions: cited from earlier work
Chain of CXCL12 to CXCR7 (P48061 22-89 limits assumed): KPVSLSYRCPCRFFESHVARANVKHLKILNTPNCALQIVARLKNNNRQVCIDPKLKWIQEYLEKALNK

Stability after 24 h = type: physicochemical; conditions: monitored after 24 h
Experimental: (§1) Their solubility in assay media was evaluated. (2-Hydroxypropyl)-o-cyclodextrin (Cdx) was used as excipient because of its low toxicity and its capacity to increase bioavailability. […] The compound stability was evaluated in PBS only and in PBS/Cdx.

[1] = Solubility in assay media; type: physicochemical
Experimental: as §1

CCL22 = target: T1, CCL22 (Homo sapiens, UniProt O00626); test: Selectivity towards chemokine CCL22; conditions: 5 μM
T1 sequence (O00626 25-93): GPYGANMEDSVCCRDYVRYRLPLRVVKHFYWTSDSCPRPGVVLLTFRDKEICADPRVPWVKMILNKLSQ
Experimental: Furthermore, the selectivity of (1) was also evaluated towards two other chemokines, namely CCL17 and CCL22, with no activity at 5 μM (data not shown).

C57BL/6J mice = test: Fentanyl-induced hyperalgesia, tail immersion test
[2] = PBS with (2-hydroxypropyl)-cyclodextrin (Cdx) 10% w/w, aqueous with cosolvent or surfactant or cyclodextrin, PBS/Cdx (10% w/w), read-out: Solubility PBS/Cdx
[3] = PBS, aqueous buffer, read-out: Solubility PBS
[4] = vs SuHx rats treated with vehicle or chalcone-4

Compound | Pulmonary vascular remodeling (SuHx Wistar rats) | Total pulmonary vascular resistance (TPVR) (SuHx Wistar rats) | Binding of CXCL12 to CXCR7 (CXCL12 to CXCR7) | Stability PBS/Cdx (Stability after 24 h) | Stability PBS (Stability after 24 h) | solubility [1, 2] | solubility [1, 3] | Activity towards CCL22 (CCL22) | Cardiac output (SuHx Wistar rats; [4]) | Fulton index (right ventricular hypertrophy) (SuHx Wistar rats; [4]) | Secondary hyperalgesia induced by fentanyl (C57BL/6J mice; 10 mg/kg i.p., co-administered with fentanyl) | Nociceptive threshold, compound alone (C57BL/6J mice; 50 mg/kg, i.p., without fentanyl) | Solubility compared with chalcone-4 ([1]; in words)
COc1cc(/C=C/C(=O)c2ccc(Cl)cc2)ccc1O [Chalcone-4, (E)-1-(4-Chlorophenyl)-3-(4-hydroxy-3-methoxyphenyl)prop-2-en-1-one, reference compound] | substantially attenuated the pulmonary vascular remodeling | substantial decrease | inhibits | 100% | 100% | > 300 µM | 9 µM (≈ 2.6 µg/mL) | – | – | – | – | – | –
COc1cc(-c2cc(-c3ccc(Cl)cc3)nc(=O)[nH]2)ccc1O [compound (1), 4-(4-Chlorophenyl)-6-(4-hydroxy-3-methoxyphenyl)pyrimidin-2(1H)-one] | substantially attenuated the pulmonary vascular remodeling | substantial decrease | – | 100% | 100% | > 5000 µM | 36.4 µM (≈ 12 µg/mL) | no activity | substantial increase | significant decrease | completely prevented the development of secondary hyperalgesia | no effect on the nociceptive threshold | better than the solubility of “chalcone-4”; also recorded: more soluble
